The subject of data set [1] is influenza A virus A/Jena/5258/2009 (pandemic H1N1; oseltamivir-sensitive). It counts as cell-based.
Data set [2] deals with influenza A virus A/Jena/5258/2009. Nature of the data set: microbe, parasite or virus in culture. Conditions: Influenza A virus, MDCK, read-out: 50% inhibitory concentration, A/Jena/5258/2009. It counts as cell-based, influenza A virus H1N1.
Data set [3] deals with influenza A virus A/342/2009. Nature of the data set: microbe, parasite or virus in culture. It counts as cell-based, influenza A virus H1N1. Conditions: for IC50: read-out: 50% inhibitory concentration, A/342/2009.
For data set [4] the following is noted: rat, in vivo; cited from earlier work.
Data set [5] deals with neuraminidase of influenza A virus A/Jena/5258/2009 (H1N1-subtype) (Influenza A virus, UniProt A0A088CA11). The experiment in a line: biochemical.
The next data set is described as follows: physchem. It counts as physicochemical. Conditions: aqueous buffer, thermodynamic from solid. On the procedure:
2. Solubility Assays of the Compounds Tested
Determining the Solubility at Different pH Values:
Therefor, a few mg of the compounds were weighed and mixed with the volume of 50 mM KH2PO4 buffer of respective pH value for a 50 mM solution. […] Subsequently, the undissolved portion was removed by centrifugation at 10.000 rpm for 15 min, and the concentration in the supernatant was determined by HPLC.

The target of a further data set is albumin (Homo sapiens, UniProt P02768). It counts as in vitro ADME. Particulars: 4% albumin solution, average of three concentrations (10, 25, 50 μM). On the procedure: 3. Determination of Protein Binding of the Amidine Effective Form (3) as Well as of Prodrugs Thereof (2, 4) and of the Guanidine Effective Form (9) as Well as of Prodrugs Thereof (6, 10)
(§1) The plasma protein binding was carried out in three different concentrations (10, 25, and 50 μM). A 4% albumin solution was used as protein solutions. In each case, 50 μl of a 10-fold concentrated substance solution were pipetted in 450 μl of the protein solution. The incubation was carried out for 15 minutes in the shaking water bath at 37° C. Subsequently, the samples were transferred in ultra-filtration units (Vivaspin 500, 10 kDa cut-off) and centrifuged for 15 min at 10.000 rpm. The filtrate was analyzed by HPLC. In addition, a control was run for each concentration, which was not treated with protein and not centrifuged.

The nature of a further data set: in vitro. It counts as in vitro ADME. Conditions: human plasma instead of the 4% albumin solution; read-out: Protein binding (converted). How it is done: . Therefor, human plasma was used instead of the 4% albumin solution. […]. The values are as expected somewhat higher than the values obtained with the 4% albumin solution and are to be traced back to the presence of other plasma proteins (e.g. α1-acidic glycoprotein) in addition to albumin.
as §1
. Therefor, instead of the 4% albumin solution, human plasma was used. […]. As anticipated, the values are somewhat higher than the values obtained with the 4% albumin solution and are due to the presence of other plasma proteins (e.g., α1-acidic glycoprotein) besides the albumin.

The nature of another data set: in vivo. Conditions: rat; for Plasma level of derivative 9 (Conc.): intravenous administration of derivative 9, 10 mg/kg. How it is done: Sprague Dawley (SD) rats were supplied for habitation 10 days before the start of the experiment, weighing ˜300-350 g and kept in an air conditioned room with a constant temperature of 20° C. and a humidity of 50%. In this room there was a day-night rhythm of twelve hours. The dark phase began daily at 18 o'clock and turned over to the light phase at 6 clock. The rats were kept over the acclimatization period in standard cages of the size 3 (length: 42 cm, width 26 cm, height: 15 cm) and transferred three days before commencement of an experiment into a special experimental room, placed in the identical environmental conditions. They received a maintenance diet (maintenance diet for rats and mice; No. 1320; Altromin) and tap water ad libitum.
A catheter was implanted in the vein as well as in the arteria femoralis of rats receiving an i.v. administration. Rats receiving only oral administration of substances received a […] catheter only.
The catheterized animals were kept after surgery for a day in the experimental room and individually in their experimental cages. The application of the test compounds was carried out on the second day after the operation. On the experimental day, the rats were weighed one hour prior to the test and the arterial catheter was flushed with 300 μl of heparin solution. Subsequently, the i.v. or oral administration of the compounds was carried out.
The oral administrations were performed as a suspension or solution made with gum arabic (10% w/v) by gavage.
The oral administrations were made as suspension or solution with gum arabic (10% w/v) by gavage.
After i.v. administration, plasma samples were taken at 5, 10, 20, 45, 90, 150, 240 and 360 min, respectively after oral administration after 30, 60, 90, 120, 180, 240 and 360 min. To this, in each case 300 μl of whole blood were taken using an insulin syringe and transferred into EDTA-coated Microvettes CB 300 (Sarstedt, Nümbrecht). After each withdrawal it was rinsed with 100 μl 0.9% saline or every 60 min with heparin solution (250 IU/ml). The blood sample was shaken briefly and put until centrifugation (4° C.; 14000 U/min; 10 min) on ice. Subsequently, the samples were frozen at −80° C.
The plasma samples were processed and analyzed by HPLC. Therefor, the plasma samples were thawed at room temperature. In each case, 80 μl methanol (+0.2% TFA) were prepared and subsequently 80 μl of the plasma samples were pipetted into. The samples were shaken for 45 min to precipitate plasma proteins. The samples were frozen at −80° C., thawed and shaken for another 15 min. The samples were centrifuged for 15 min at 13.000 RPM and the supernatant was transferred into HPLC vials. In each case 50 μl were used for the determinations by LC/MS.
The animal studies were evaluated using the following LC/MS method.

Data set [6] is classed as physicochemical. Conditions: 0.2 mg/ml, pH 7.4 at RT and 4° C. or Aqua bidest at 4° C., 14 days. On the procedure:
The storage stability in solution was determined at a concentration of 0.2 mg/ml. Therefor, a compound was dissolved in 50 mM KH2PO4 buffer, pH 7.4 respectively Aqua bidest and stored at RT (pH 7.4) or in a refrigerator at 4° C. (pH 7.4 respectively Aqua bidest) over the test period. The concentration of the active form was determined after 12 h, 1 d, 2 d, 4 d, 7 d and 14 d by HPLC.
Stability Studies for the Amidine Effective Form (3) and Guanidine Effective Form (9) Over 2 Weeks Studies at pH 7.4:
The storage stability in dissolved form was determined at a concentration of 0.2 mg/ml. For this purpose, the compound was dissolved in 50 mM KH2PO4 buffer pH 7.4 or in aqua bidest and stored for the investigation period at RT (pH 7.4) or in a refrigerator at 4° C. (pH 7.4 or aqua bidest). The concentration of the effective form was determined by HPLC after 12 h, 1 d, 2 d, 4 d, 7 d and 14 d.

Data set [7] is classed as in vitro ADME, human. Conditions: 37° C., up to 120 min. How it is done:
(§2) In addition, the substances were tested in human and murine plasma. Therefor, 630 μl of the plasma as mixed with 70 μl of a 2 mM stock solution of each compound in 10 mM phosphate buffer pH 7.4. The incubations were performed in a shaking water bath at 37° C. The incubation was terminated at the times 15, 30, 45, 60, 90 and 120 min by removal of 100 μl sample and addition of 100 μl acetonitrile. The samples were centrifuged (12,000 rpm/10 min) and the supernatant surveyed by HPLC.
(§3) The stability studies were analyzed using the following HPLC method.

The format of data set [8] is in vitro ADME, murine. Conditions: 37° C., up to 120 min. On the procedure:
as §2, §3

The mark [9] stands for this setting: Sprague Dawley, in vivo, iv, 10 mg/kg.
The mark [10] stands for this setting: Sprague Dawley, in vivo, po, 50 mg/kg.

Like-named read-outs stand apart in the source and are kept apart here.

Sequence of albumin (P02768 25-609): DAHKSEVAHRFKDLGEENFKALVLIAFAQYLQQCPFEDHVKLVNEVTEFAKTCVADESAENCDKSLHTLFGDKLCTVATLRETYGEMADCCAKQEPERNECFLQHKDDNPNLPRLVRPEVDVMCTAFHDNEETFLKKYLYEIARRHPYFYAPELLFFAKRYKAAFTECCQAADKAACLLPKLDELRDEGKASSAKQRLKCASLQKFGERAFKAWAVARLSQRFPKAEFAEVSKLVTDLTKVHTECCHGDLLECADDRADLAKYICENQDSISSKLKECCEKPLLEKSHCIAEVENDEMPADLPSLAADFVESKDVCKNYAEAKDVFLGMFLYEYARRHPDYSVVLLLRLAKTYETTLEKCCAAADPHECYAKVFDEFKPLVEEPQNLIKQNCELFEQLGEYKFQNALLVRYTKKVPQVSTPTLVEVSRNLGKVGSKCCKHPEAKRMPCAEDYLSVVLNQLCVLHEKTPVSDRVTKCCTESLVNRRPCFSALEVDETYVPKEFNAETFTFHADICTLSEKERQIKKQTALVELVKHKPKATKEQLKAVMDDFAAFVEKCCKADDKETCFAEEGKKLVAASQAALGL

`CCOC(=O)C1=C[C@@H](OC(CC)CC)[C@H](NC(C)=O)[C@@H](N)C1` [Oseltamivir, (3R,4R,5S)-4-acetamido-5-amino-3-(1-ethylpropoxy)cyclohex-1-en-1-carboxylic acid ethyl ester, reference compound]: in data set [1], the “90% inhibitory concentration, A/Jena/5258/2009” value (“90% inhibitory concentration” below) is listed as 0.016 (0.021) μM and the “95% inhibitory concentration (values in parentheses), A/Jena/5258/2009” value (“95% inhibitory concentration” below) is 0.016 (0.021) μM. For the same compound, the IC50 in [2] was found to be 13.2 µM. In addition, the “50% inhibitory concentration, A/342/2009” value in data set [3] is on record as “resistant”. In data set [4], the plasma half-life period is 0.733 h. The compound further registered an IC50 in [5] of 0.0001 µM.
Usually solubility stands for the dissolved amount per volume that the medium holds. A high value points to much dissolved substance. As usually defined, the MRT is the average time that molecules of a dose stay in the body. As a reminder, the half-life is how long it takes for the measured level to halve. Read a low half-life as rapid decline. With `CCC(CC)O[C@@H]1C=C(C(=O)O)C[C@H](NC(C)=N)[C@H]1NC(C)=O` [Compound 3], the “90% inhibitory concentration” value in [1] is listed as 0.001 (0.011) μM. Moreover, the “95% inhibitory concentration” value in [1] was 0.001 (0.011) μM. Also, the IC50 in data set [2] worked out at 2 µM; in data set [3] (Influenza A virus, MDCK) it was 12.2 µM; in data set [3], 12.1 µM; in [5], 0.0001 µM. In addition, the solubility at 30 min in “physchem” is > 50 mM. Besides, the Protein binding at albumin is given as 2.2 ± 1.5%. In addition, in the data set “in vitro”, the fraction unbound is 0.963. The Bioavailability stood at 100% in the data set “in vivo” (setting [9]) and 3.0% in “in vivo” (setting [10]). For the same compound, the mean residence time MRT in “in vivo” (setting [9]) was 0.587 h; in “in vivo” (setting [10]) it was 1.867 h. Further, the half-life in the data set “in vivo” (setting [9]) was 0.642 h; in “in vivo” (Sprague Dawley, in vivo, po), ~1.87 h. The compound further showed a cmax in “in vivo” (setting [10]) of 0.7 µg/mL. In addition, the “Plasma level of derivative 3 (Conc.) after oral administration of the labelled derivative” value was found to be 0 nM in “in vivo” (Sprague Dawley, in vivo, po, 50 mg/kg, 0 min); 1630 nM in “in vivo” (Sprague Dawley, in vivo, po, 50 mg/kg, 30 min); 1590 nM in “in vivo” (Sprague Dawley, in vivo, po, 50 mg/kg, 60 min); 1500 nM in the data set “in vivo” (Sprague Dawley, in vivo, po, 50 mg/kg, 90 min); 1250 nM in “in vivo” (Sprague Dawley, in vivo, po, 50 mg/kg, 120 min); 610 nM in the data set “in vivo” (Sprague Dawley, in vivo, po, 50 mg/kg, 180 min). Moreover, the “Plasma level of derivative 3 (Conc.) after oral administration of the labelled derivative” value in “in vivo” (Sprague Dawley, in vivo, po, 50 mg/kg, 240 min) came to 300 nM; in the data set “in vivo” (Sprague Dawley, in vivo, po, 50 mg/kg, 360 min), 40 nM. The compound also showed an AUC in the data set “in vivo” (Iv, 10 mg/kg, active form 3 in plasma) of 576.8.
Turning to `CCC(CC)O[C@@H]1C=C(C(=O)O)C[C@H](NC(=N)N)[C@H]1NC(C)=O` [Compound 9, (3R,4R,5S)-4-acetamido-5-(N-guanidino)-3-(1-ethylpropoxy)cyclohex-1-en-1-carboxylic acid], the “90% inhibitory concentration” value in data set [1] was 0.002 (0.003) μM. The “95% inhibitory concentration” value in data set [1] was 0.002 (0.003) μM. Besides, the IC50 in data set [2] stood at 1.1 µM; in [3] (Influenza A virus, MDCK), 4.1 µM. Moreover, the “Storage stability in solution” value in [6] is on record as “stable”. For the same compound, the “Stability/metabolism by plasma enzymes in human plasma” value in data set [7] is reported as “not metabolized”. In addition, in data set [8], the “Stability/metabolism by plasma enzymes in murine plasma” value is reported as “not metabolized”. The compound further gave a Protein binding at albumin of 0.4 ± 2.8%. In the data set “in vitro”, the fraction unbound was 0.914. The compound further had an AUC in the data set “in vivo” (setting [9]) of 4880 ng·h/mL. Further, the Bioavailability in “in vivo” (setting [9]) turned out to be 100%. The MRT in “in vivo” (setting [9]) is 0.902 h. Also, the half-life in the data set “in vivo” (setting [9]) was 2 h; in the data set “in vivo” (Sprague Dawley, in vivo, po), ~1.63 h. The “Plasma level of derivative 9 (Conc.)” value came to 23710 nM in “in vivo” (time 5); 18300 nM in “in vivo” (time 10); 12670 nM in “in vivo” (time 20); 5050 nM in the data set “in vivo” (time 45); 1670 nM in “in vivo” (time 90); 540 nM in the data set “in vivo” (time 150). The figures for the “Plasma level of derivative 9 (Conc.)” value in “in vivo” (time 240) and in “in vivo” (time 360) were 230 nM and 110 nM, respectively.

The values are drawn from patent US9828333B2, “Compounds for the treatment of influenza” (CHRISTIAN-ALBRECHTS-UNIVERSITAT ZU KIEL, priority 2011, dated 2017).
